Results as given in patent US9113629B2, “4-amino-6-(4-substituted-phenyl)-picolinates and 6-amino-2-(4-substituted-phenyl)-pyrimidine-4-carboxylates and their use as herbicides” (DOW AGROSCIENCES LLC, priority 2013, dated 2015).

system: LAMSS; test: Post-emergent Test III, herbicidal activity in wheat and barley; type: in vivo; details: post-emergence, 504 h; 35 g ai/ha; read-out: Visual Growth Reduction (%) 21 Days After Application LAMSS
Procedure, shortened: (§1)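 GR20, GR50, GR80 and GR90 come from probit analysis of visual injury scores (0 = none, 100 = complete kill) taken 21 d after treatment. Foliar application was by track sprayer delivering 187 L/ha at five rates, from high down to 1/16×, onto greenhouse plants at the 2–3 leaf stage, with solvent-blank controls.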

SMILES	pest or weed control at 35 g/ha [%]
Nc1c(F)c(-c2ccc(Cl)c(F)c2)nc(C(=O)O)c1Cl [Compound 217]	95 to 100

same assay, conditions: post-emergence, 504 h; 70 g ai/ha; read-out: Visual Growth Reduction (%) 21 Days After Application LAMSS

SMILES	pest or weed control at 70 g/ha [%]
Nc1c(F)c(-c2ccc(Cl)c(F)c2)nc(C(=O)O)c1Cl [Compound 217]	95 to 100

same assay, conditions: post-emergence, 504 h; 140 g ai/ha; read-out: Visual Growth Reduction (%) 21 Days After Application LAMSS

SMILES	pest or weed control at 140 g/ha [%]
Nc1c(F)c(-c2ccc(Cl)c(F)c2)nc(C(=O)O)c1Cl [Compound 217]	95 to 100

same assay, conditions: probit analysis, dose for growth reduction of 50 percent, 21 days after application

SMILES	GR50 LAMSS [g ai/ha]
Nc1c(F)c(-c2ccc(Cl)c(F)c2)nc(C(=O)O)c1Cl [Compound 217]	1

same assay, conditions: probit analysis, dose for growth reduction of 80 percent, 21 days after application

SMILES	GR80 LAMSS [g ai/ha]
Nc1c(F)c(-c2ccc(Cl)c(F)c2)nc(C(=O)O)c1Cl [Compound 217]	2

system: BROTE: downy brome (Bromus tectorum); test: as above; type: in vivo; details: Bromus tectorum, post-emergence, 504 h; 35 g ai/ha; read-out: Visual Growth Reduction (%) 21 Days After Application BROTE
Procedure, shortened: as §1

SMILES	pest or weed control at 35 g/ha [%]
Nc1c(F)c(-c2ccc(Cl)c(F)c2)nc(C(=O)O)c1Cl [Compound 217]	75 to 84

same assay, conditions: Bromus tectorum, post-emergence, 504 h; 70 g ai/ha; read-out: Visual Growth Reduction (%) 21 Days After Application BROTE

SMILES	pest or weed control at 70 g/ha [%]
Nc1c(F)c(-c2ccc(Cl)c(F)c2)nc(C(=O)O)c1Cl [Compound 217]	85 to 94

same assay, conditions: Bromus tectorum, post-emergence, 504 h; 140 g ai/ha; read-out: Visual Growth Reduction (%) 21 Days After Application BROTE

SMILES	pest or weed control at 140 g/ha [%]
Nc1c(F)c(-c2ccc(Cl)c(F)c2)nc(C(=O)O)c1Cl [Compound 217]	85 to 94

same assay, conditions: probit analysis, dose for growth reduction of 50 percent, 21 days after application

SMILES	GR50 BROTE [g ai/ha]
Nc1c(F)c(-c2ccc(Cl)c(F)c2)nc(C(=O)O)c1Cl [Compound 217]	15

same assay, conditions: probit analysis, dose for growth reduction of 80 percent, 21 days after application

SMILES	GR80 BROTE [g ai/ha]
Nc1c(F)c(-c2ccc(Cl)c(F)c2)nc(C(=O)O)c1Cl [Compound 217]	33

system: PAPRH: common poppy (Papaver rhoeas); test: as above; type: in vivo; details: Papaver rhoeas, post-emergence, 504 h; 35 g ai/ha; read-out: Visual Growth Reduction (%) 21 Days After Application PAPRH
Procedure, shortened: as §1

SMILES	pest or weed control at 35 g/ha [%]
Nc1c(F)c(-c2ccc(Cl)c(F)c2)nc(C(=O)O)c1Cl [Compound 217]	95 to 100

same assay, conditions: Papaver rhoeas, post-emergence, 504 h; 70 g ai/ha; read-out: Visual Growth Reduction (%) 21 Days After Application PAPRH

SMILES	pest or weed control at 70 g/ha [%]
Nc1c(F)c(-c2ccc(Cl)c(F)c2)nc(C(=O)O)c1Cl [Compound 217]	95 to 100

same assay, conditions: Papaver rhoeas, post-emergence, 504 h; 140 g ai/ha; read-out: Visual Growth Reduction (%) 21 Days After Application PAPRH

SMILES	pest or weed control at 140 g/ha [%]
Nc1c(F)c(-c2ccc(Cl)c(F)c2)nc(C(=O)O)c1Cl [Compound 217]	95 to 100

same assay, conditions: probit analysis, dose for growth reduction of 50 percent, 21 days after application

SMILES	GR50 PAPRH [g ai/ha]
Nc1c(F)c(-c2ccc(Cl)c(F)c2)nc(C(=O)O)c1Cl [Compound 217]	1

same assay, conditions: probit analysis, dose for growth reduction of 80 percent, 21 days after application

SMILES	GR80 PAPRH [g ai/ha]
Nc1c(F)c(-c2ccc(Cl)c(F)c2)nc(C(=O)O)c1Cl [Compound 217]	1

system: ALOMY: black-grass (Alopecurus myosuroides); test: as above; type: in vivo; details: Alopecurus myosuroides, post-emergence, 504 h; 35 g ai/ha; read-out: Visual Growth Reduction (%) 21 Days After Application ALOMY
Procedure, shortened: as §1

SMILES	pest or weed control at 35 g/ha [%]
Nc1c(F)c(-c2ccc(Cl)c(F)c2)nc(C(=O)O)c1Cl [Compound 217]	75 to 84

same assay, conditions: Alopecurus myosuroides, post-emergence, 504 h; 70 g ai/ha; read-out: Visual Growth Reduction (%) 21 Days After Application ALOMY

SMILES	pest or weed control at 70 g/ha [%]
Nc1c(F)c(-c2ccc(Cl)c(F)c2)nc(C(=O)O)c1Cl [Compound 217]	85 to 94

same assay, conditions: Alopecurus myosuroides, post-emergence, 504 h; 140 g ai/ha; read-out: Visual Growth Reduction (%) 21 Days After Application ALOMY

SMILES	pest or weed control at 140 g/ha [%]
Nc1c(F)c(-c2ccc(Cl)c(F)c2)nc(C(=O)O)c1Cl [Compound 217]	85 to 94

same assay, conditions: probit analysis, dose for growth reduction of 50 percent, 21 days after application

SMILES	GR50 ALOMY [g ai/ha]
Nc1c(F)c(-c2ccc(Cl)c(F)c2)nc(C(=O)O)c1Cl [Compound 217]	12

same assay, conditions: probit analysis, dose for growth reduction of 80 percent, 21 days after application

SMILES	GR80 ALOMY [g ai/ha]
Nc1c(F)c(-c2ccc(Cl)c(F)c2)nc(C(=O)O)c1Cl [Compound 217]	31

system: SETVI: green foxtail (Setaria viridis); test: as above; type: in vivo; details: Setaria viridis, post-emergence, 504 h; 35 g ai/ha; read-out: Visual Growth Reduction (%) 21 Days After Application SETVI
Procedure, shortened: as §1

SMILES	pest or weed control at 35 g/ha [%]
Nc1c(F)c(-c2ccc(Cl)c(F)c2)nc(C(=O)O)c1Cl [Compound 217]	75 to 84

same assay, conditions: Setaria viridis, post-emergence, 504 h; 70 g ai/ha; read-out: Visual Growth Reduction (%) 21 Days After Application SETVI

SMILES	pest or weed control at 70 g/ha [%]
Nc1c(F)c(-c2ccc(Cl)c(F)c2)nc(C(=O)O)c1Cl [Compound 217]	75 to 84

same assay, conditions: Setaria viridis, post-emergence, 504 h; 140 g ai/ha; read-out: Visual Growth Reduction (%) 21 Days After Application SETVI

SMILES	pest or weed control at 140 g/ha [%]
Nc1c(F)c(-c2ccc(Cl)c(F)c2)nc(C(=O)O)c1Cl [Compound 217]	75 to 84

same assay, conditions: Setaria viridis, post-emergence, 504 h; Table 9; 35 g ai/ha; post-emergent; 21 d; read-out: Visual Growth Reduction (%) 21 Days After Application SETVI

SMILES	pest or weed control at 35 g/ha [%]
C#Cc1ccc(-c2nc(N)c(OC)c(C(=O)O)n2)cc1 [Compound 28]	0 to 29
COC(=O)c1nc(-c2ccc(Br)cc2F)nc(N)c1OC [Compound 35]	0 to 29
COc1c(N)nc(-c2ccc(Br)cc2F)nc1C(=O)O [Compound 46]	0 to 29
C#Cc1ccc(-c2nc(N)c(OC)c(C(=O)O)n2)c(F)c1F [Compound 154]	30 to 44
Nc1cc(-c2ccc(Br)cc2)nc(C(=O)O)c1Cl [Compound 168]	45 to 59

same assay, conditions: Setaria viridis, post-emergence, 504 h; Table 9; 70 g ai/ha; post-emergent; 21 d; read-out: Visual Growth Reduction (%) 21 Days After Application SETVI

SMILES	pest or weed control at 70 g/ha [%]
C#Cc1ccc(-c2nc(N)c(OC)c(C(=O)O)n2)cc1 [Compound 28]	0 to 29
COC(=O)c1nc(-c2ccc(Br)cc2F)nc(N)c1OC [Compound 35]	30 to 44
COc1c(N)nc(-c2ccc(Br)cc2F)nc1C(=O)O [Compound 46]	30 to 44
C#Cc1ccc(-c2nc(N)c(OC)c(C(=O)O)n2)c(F)c1F [Compound 154]	60 to 74
Nc1cc(-c2ccc(Br)cc2)nc(C(=O)O)c1Cl [Compound 168]	60 to 74

same assay, conditions: Setaria viridis, post-emergence, 504 h; Table 9; 140 g ai/ha; post-emergent; 21 d; read-out: Visual Growth Reduction (%) 21 Days After Application SETVI

SMILES	pest or weed control at 140 g/ha [%]
COc1c(N)nc(-c2ccc(Br)cc2F)nc1C(=O)O [Compound 46]	30 to 44
C#Cc1ccc(-c2nc(N)c(OC)c(C(=O)O)n2)c(F)c1F [Compound 154]	75 to 84

same assay, conditions: Table 9; dose for 50 percent growth reduction, probit analysis; 21 d

SMILES	GR50 SETVI [g ai/ha]
C#Cc1ccc(-c2nc(N)c(OC)c(C(=O)O)n2)cc1 [Compound 28]	>140
COC(=O)c1nc(-c2ccc(Br)cc2F)nc(N)c1OC [Compound 35]	79
COc1c(N)nc(-c2ccc(Br)cc2F)nc1C(=O)O [Compound 46]	>140
C#Cc1ccc(-c2nc(N)c(OC)c(C(=O)O)n2)c(F)c1F [Compound 154]	56
Nc1cc(-c2ccc(Br)cc2)nc(C(=O)O)c1Cl [Compound 168]	28

same assay, conditions: Table 9; dose for 80 percent growth reduction, probit analysis; 21 d

SMILES	GR80 SETVI [g ai/ha]
C#Cc1ccc(-c2nc(N)c(OC)c(C(=O)O)n2)cc1 [Compound 28]	>140
COC(=O)c1nc(-c2ccc(Br)cc2F)nc(N)c1OC [Compound 35]	>140
COc1c(N)nc(-c2ccc(Br)cc2F)nc1C(=O)O [Compound 46]	>140
C#Cc1ccc(-c2nc(N)c(OC)c(C(=O)O)n2)c(F)c1F [Compound 154]	109
Nc1cc(-c2ccc(Br)cc2)nc(C(=O)O)c1Cl [Compound 168]	70

same assay, conditions: probit analysis, dose for growth reduction of 50 percent, 21 days after application

SMILES	GR50 SETVI [g ai/ha]
Nc1c(F)c(-c2ccc(Cl)c(F)c2)nc(C(=O)O)c1Cl [Compound 217]	46

same assay, conditions: probit analysis, dose for growth reduction of 80 percent, 21 days after application

SMILES	GR80 SETVI [g ai/ha]
Nc1c(F)c(-c2ccc(Cl)c(F)c2)nc(C(=O)O)c1Cl [Compound 217]	>140
